Patent US11098060B2, “Macrocycle containing aminopyrazole and pyrimidine and pharmaceutical composition and use thereof” (CHIA TAI TIANQING PHARMACEUTICAL GROUP CO., LTD., priority 2017, dated 2021)

Tests used:
[1] = Pharmacokinetic assay in rats, oral; type: in vivo; settings: rat, male SD rats, 5 mg/kg single intragastric administration, plasma
Description: Male SD rats were available from Beijing Vital River Laboratory Animal Technology Co., Ltd. The rats were allocated with three rats per group, and orally administered the suspension of a sample to be tested (5 mg/kg, the suspension is a mixed solution of 10% EtOH, 40% PEG 400 and 50% H2O) by single intragastric administration, respectively. Before the experiment, the animals were fasted overnight, and the fasting time was from 10 hrs before administration to 4 hrs after administration. After administration, a blood sample was taken at 0.25 hr, 0.5 hr, 1 hr, 2 hrs, 4 hrs, 6 hrs, 8 hrs and 24 hrs, respectively. After the animals were narcotized with isoflurane using an anaesthesia machine for small animals, 0.3 mL of whole blood was taken from fundus venous plexus, and placed in a heparin anticoagulant tube. At 4° C., the sample was centrifuged at 4000 rpm for 5 min, and plasma was transferred to a centrifuge tube and preserved at −80° C. until the analysis was started. The sample in plasma was extracted by the protein precipitation method, and the extracted liquid was analyzed by LC/MS/MS.

[2] = biological target: TrkA^WT kinase (Homo sapiens (Human), UniProt P04629); test: Assay for inhibitory activity (IC50) against TrkA^WT (HTRF); type: biochemical; settings: TrkA 1 nM, ATP 40 μM, TK peptide 1 μM, 60 min at 23° C.
[3] = biological target: TrkA^G595R (Kinase domain) kinase (Homo sapiens (Human), UniProt P04629, G595R); test: Assay for inhibitory activity (IC50) against TrkA^G595R kinase (HTRF); type: biochemical; settings: kinase 0.2 nM, TK peptide 1 μM, 120 min at 23° C.
Chain of TrkA^G595R (Kinase domain) kinase (P04629 510-781 G595R): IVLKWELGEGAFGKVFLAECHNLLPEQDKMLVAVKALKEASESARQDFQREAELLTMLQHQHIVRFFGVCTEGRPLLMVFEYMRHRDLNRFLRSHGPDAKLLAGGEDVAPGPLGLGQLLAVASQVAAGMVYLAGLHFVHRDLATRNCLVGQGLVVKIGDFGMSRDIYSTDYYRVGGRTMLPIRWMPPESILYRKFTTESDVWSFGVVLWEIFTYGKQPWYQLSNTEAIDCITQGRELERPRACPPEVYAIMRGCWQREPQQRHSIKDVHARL

Chain of TrkA^WT kinase (P04629 33-796): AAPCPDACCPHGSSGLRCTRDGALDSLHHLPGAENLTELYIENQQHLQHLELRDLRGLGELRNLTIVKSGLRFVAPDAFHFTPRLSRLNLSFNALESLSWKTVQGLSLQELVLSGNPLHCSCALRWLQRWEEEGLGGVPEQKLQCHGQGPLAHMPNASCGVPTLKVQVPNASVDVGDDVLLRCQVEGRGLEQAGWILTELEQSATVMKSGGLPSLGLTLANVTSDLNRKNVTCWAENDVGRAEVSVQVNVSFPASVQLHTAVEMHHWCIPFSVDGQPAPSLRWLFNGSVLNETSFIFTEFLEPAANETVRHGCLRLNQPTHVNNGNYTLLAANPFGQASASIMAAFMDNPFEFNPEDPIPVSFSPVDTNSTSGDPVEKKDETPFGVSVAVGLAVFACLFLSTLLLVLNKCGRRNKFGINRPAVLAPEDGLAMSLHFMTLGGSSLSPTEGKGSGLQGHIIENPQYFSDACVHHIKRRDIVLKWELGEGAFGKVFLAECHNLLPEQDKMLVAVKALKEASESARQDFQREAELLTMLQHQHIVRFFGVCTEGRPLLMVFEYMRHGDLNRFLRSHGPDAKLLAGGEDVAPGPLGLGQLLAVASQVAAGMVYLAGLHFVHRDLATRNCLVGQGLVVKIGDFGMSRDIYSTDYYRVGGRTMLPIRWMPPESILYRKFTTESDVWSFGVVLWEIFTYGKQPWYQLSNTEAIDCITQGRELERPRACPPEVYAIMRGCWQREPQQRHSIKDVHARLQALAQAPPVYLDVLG

Row | Molecule | AUC(0-inf) [1] | Cmax [1] | Tmax [1] | half-life [1] | IC50 [2] | IC50 [3]
1 | Nc1nn2ccc3nc2c1C(=O)NCCOc1ncc(F)cc1[C@H]1CCCN31 [Example 33, (R,1^3E,1^4E)-1^2-amino-3^5-fluoro-4-oxa-7-aza-1(5,3)-pyrazo[1,5-a]pyrimidine-3(3,2)-pyridine-2(1,2)-pyrrolidylcyclooctanephane-8-one] | 513 ng·h/mL | 142 ng/mL | 0.5 h | 4.22 h | – | –
2 | Nc1nn2ccc3nc2c1C(=O)NCCCOc1ccc(F)cc1[C@H]1CCCN31 [Example 10, (R,1^3E,1^4E)-1^2-amino-3^5-fluro-4-oxa-8-aza-1(5,3)-pyrazolo[1,5-a]pyrimidine-2(1,2)-pyrrolidine-3(1,2)-benzocyclononanephane-9-one] | – | – | – | – | 800 ± 210 pM | 1920 ± 100 pM
3 | C[C@@H]1CCc2ncc(F)cc2[C@H]2CCCN2c2ccn3nc(N)c(c3n2)C(=O)N1 [Example 28, (1^3E,1^4E,2^2R,6R)-1^2-amino-3^5-fluoro-6-methyl-7-aza-1(5,3)-pyrazolo[1,5-a]pyrimidine 3(3,2)-pyridine-2(1,2) pyrrolidylcyclooctanephane-8-one] | – | – | – | – | 310 ± 30 pM | 1010 ± 360 pM
4 | CN1CCCOc2ncc(F)cc2[C@H]2C[C@H](F)CN2c2ccn3nc(N)c(c3n2)C1=O [Example 17, (1^3E,1^4E,2^2R,2^4S)-1^2-amino-2^4,3^5-difluoro-8-methyl-4-oxa-8-aza-1(5,3) -pyrazolo[1,5-a] pyrimidine-3(3,2)-pyridine-2(1,2)-pyrrolidylcyclononanephane-9-one] | – | – | – | – | 610 ± 60 pM | 1050 ± 160 pM
5 | Nc1nn2ccc3nc2c1C(=O)NCCCOc1ncc(F)cc1[C@H]1CCCN31 [Example 21, (R,1^3E,1^4E)-1^2-Amino-3^5-fluoro-4-oxa-8-aza-1(5,3)-pyrazol[1,5-a]pyrimidine-3(3,2)-pyridine-2(1,2)-pyrrolidylcyclononanephane-9-one] | – | – | – | – | 400 ± 40 pM | 850 ± 40 pM
6 | Nc1nn2ccc3nc2c1C(=O)NCCOc1ncc(F)cc1[C@H]1C[C@H](F)CN31 [Example 14, (1^3E,1^4E,2^2R,2^4S)-1^2-amino-2^4,3^5-difluoro-4-oxa-7-aza-1(5,3)-pyrazolo[1,5-a]pyrimidine-3(3,2)-pyridine-2 (1,2)-pyrrolidylcyclooctanephane-8-one] | 504 ng·h/mL | 140 ng/mL | 1 h | 1.81 h | 680 ± 30 pM | 400 ± 50 pM
7 | C[C@H]1CCc2ncc(F)cc2[C@H]2C[C@H](F)CN2c2ccn3nc(N)c(c3n2)C(=O)N1 [Example 29, (1^3E,1^4E,2^2R,24S,6S)-1^2-amino-2^4,3^5-difluoro-6-methyl-7-aza-1(5,3)-pyrazolo[1,5-a]pyrimidine-3(3,2)-pyridine-2(1,2) pyrrolidylcyclooctanephane-8-one] | – | – | – | – | 250 ± 20 pM | 1080 ± 240 pM
8 | Nc1nn2ccc3nc2c1C(=O)NCCOc1ccc(F)cc1[C@H]1CCCN31 [Example 8, (R,1^3E,1^4E)-1^2-amino-3^5-fluro-4-oxa-7-aza-1(5,3)-pyrazolo[1,5-a]pyrimidine-2(1,2)-pyrrolidine-3(1,2)-benzocyclooctanephane-8-one] | – | – | – | – | 410 ± 40 pM | 2080 ± 450 pM
9 | Nc1nn2ccc3nc2c1C(=O)NCCCCOc1ncc(F)cc1[C@H]1C[C@H](F)CN31 [Example 16, (1^3E,1^4E,2^2R,2^4S)-1^2-amino-2^4,3^5-difluoro-4-oxa-9-aza-1(5,3)-pyrazolo[1,5-a] pyrimidine-3(3,2)-pyridine-2(1,2)-pyrrolidylcyclodecanephane-10-one] | – | – | – | – | 510 ± 50 pM | 760 ± 140 pM
10 | (1^3E,1^4E,2^2R,2^4S)-1^2-Amino-2^4,3^5-difluoro-4-oxa-8-aza-1(5,3)-pyrazolo[1,5-a]pyrimidin-3(3,2)-pyridine-2(1,2)-pyrrolidylcyclononanephane-9-one [Example 12] | – | – | – | – | 720 ± 40 pM | 340 ± 40 pM
11 | C[C@H]1CNC(=O)c2c(N)nn3ccc(nc23)N2C[C@@H](F)C[C@@H]2c2cc(F)cnc2O1 [Example 15, (1^3E,1^4E,2^2R,2^4S,5S)-1^2-amino-2^4,3^5-difluoro-5-methyl-4-oxa-7-aza-1(5,3)-pyrazolo[1,5-a] pyrimidine--3(3,2)-pyridine-2(1,2)-pyrrolidylcyclooctanephane-8-one] | 494 ng·h/mL | 285 ng/mL | 0.58 h | 1.53 h | 450 ± 180 pM | 530 ± 80 pM
12 | Nc1nn2ccc3nc2c1C(=O)NCCOc1ncc(F)cc1[C@H]1C[C@@H](O)CN31 [Example 9, (1^3E,1^4E,2^2R,2^4R)-1^2-amino-3^5fluoro-2^4-hydroxy-4-oxa-7-aza-1(5,3)-pyrazolo[1,5-a] pyrimidine-3(3,2)-pyridine-2(1,2)-pyrrolidylcyclooctanephane-8-one] | – | – | – | – | 440 ± 120 pM | 840 ± 140 pM
13 | C[C@@H]1COc2ncc(F)cc2[C@H]2C[C@H](F)CN2c2ccn3nc(N)c(c3n2)C(=O)N1 [Example 19, (1^3E,1^4E,2^2R,2^4S,6R)-1^2-amino-2^4, 3^5-difluoro-6-methyl-4-oxa-7-aza-1(5,3)-pyrazolo[1,5-a] pyrimidine-3(3,2)-pyridine-2(1,2)-pyrrolidylcyclooctanephane-8-one] | – | – | – | – | – | 730 ± 70 pM
14 | Nc1nn2ccc3nc2c1C(=O)NCCCc1ncc(F)cc1[C@H]1C[C@H](F)CN31 [Example 27, (1^3E,1^4E,2^2R,2^4S)-1^2-amino-2^4,3^5-difluoro-7-aza-1(5,3)-pyrazolo[1,5-a]pyrimidine-3(3,2)-pyridine-2(1,2)-pyrrolidylcyclooctanephane-8-one] | – | – | – | – | 210 ± 30 pM | 680 ± 260 pM
